Like-named read-outs stand apart in the source and are kept apart here.

The text below walks through data of patent publication US7361459B2, “Antiviral inhibition of capsid proteins” (University of Maryland, Baltimore County, priority 2002, dated 2008).

Data set [1] deals with T1, HIV-1 capsid protein N-terminal domain (Human immunodeficiency virus type 1 group M subtype B, UniProt P12493).
T1 construct: DNA encoding the CA N-terminal domain (residues 1-151); made in house
In words: 1H-15N HSQC NMR titration, binding to the apical cleft. Particulars: for binding to the capsid NTD, from chemical shift changes (in words): 1H-15N HSQC, FIGS. 13-14. From the text:
DNA encoding the CA N-terminal domain (residues 1-151) was amplified from HIV-1 cDNA plasmid pNL-4-3 and an oligonucleotide encoding a C-terminal hexahistidine tag was appended to the gene. The DNA was inserted into a p11a expression vector (Novagen, Madison, Wis.), and the protein product was purified by cobalt affinity chromatography (Clontech, Palo Alto, Calif.); MWcalc=17523.0 daltons, MWobs=17523.10±0.44 daltons (electrospray Mass Spectrometry). The plasmid for the full length, native capsid protein was kindly provided by Dr. W. I. Sundquist (University of Utah, Salt Lake City, Utah), and the protein was purified as described. NMR spectra were assigned using conventional triple resonance methods. Binding isotherms from ^1H-^15N NMR HSQC titration experiments were calculated with ORIGIN 7.0 software (MicroCal, Northampton, Mass.).
To identify compounds that inhibit functions of the capsid protein, public domain chemical libraries were screened for compounds that might bind to clefts on the surface of the capsid protein and tested for binding using NMR titration spectroscopy. Screening efforts focused mainly on a β-hairpin cleft that is exposed on the surface of the N-terminal domain of the immature capsid protein but becomes occupied by residues of a β-hairpin that forms after proteolytic cleavage of Gag.
The mature N-terminal domain was titrated with N-(3-chloro-4-methylphenyl)-N′-[2-thioethyl-2′-[5-(dimethylaminomethyl)]-2-methylfuryl ]urea (CAP-1).

For another data set, the system named is U1 cells. The experiment in a line: Cell viability / toxicity, MTS cell proliferation assay. Particulars: for toxicity (in words): latent infected U1 cells. As for the experimental part: (§1) U1 cells (5×10^5 cells/ml) were mixed with TNF-α (10 ng/ml, Sigma) for activation of HIV virion production and treated with CAP-1 at different concentrations. Cultures were harvested 72 hours after treatment. Cell viability was measured using the MTS cell proliferation assay (CellTiter 96 Aqueous One Solution Cell Proliferation Assay, Promega, Madison, Wis.). Supernatants were collected, the cell debris removed by low speed centrifugation, and the particles in the supernatants pelleted by microcentrifugation. Infectious units associated with the particles were measured as described in Kimpton, et al., Detection of replication-competent and pseudotyped HIV with a sensitive cell line on the basis of activation of an integrated β-galactosidase gene, J. Virol. 66: 2232-39, 1992, except that β-gal activities were measured using a Tropix Gal-Screen detector system (Applied Biosystems, Foster City, Calif.). Particle-associated RT activities were determined as described in Huang, et al., p6Gag is required for particle production from full length human immunodeficiency virus type 1 molecular clones expressing protease, J. Virol., […]: 6810-18, 1995. Cell lysates and pelleted particles were subjected to SDS-PAGE analysis using AIDS patient sera (AIDS Research and Reference Regent Program, NIAID, NIH). Quantitative p24 (CA) assays were performed with the HIV-1 p24 Antigen Capture ELISA kit (AIDS vaccine program, FCRDC/SAIC/NCI, Frederick, Md.). MAGI cells were washed after viral adsorption (HIV-1RF) with PBS and were fed fresh media containing CAP-1 at various concentrations. 72 hours post-infection, the culture supernatants were harvested and pre-cleared. Virus particles present on the supernatants were collected by microcentrifugation and particle-associated RT activity and infectivity were subsequently measured.
The CAP compounds were tested for toxicity and antiviral activity using HIV-1 producing, latent infected U1 cells. This assay allows assessment of antiviral effects on late phase replication events.
A general note: Tetrazolium assays rely on reduction of a dye to a coloured formazan, in cell work by metabolically active cells.

Data set [2] has as its system HIV-1. In words: Infectious units of particles from latent infected U1 cells. The data set is classed as cell-based. As for the experimental part: as §1, with “Cell lysates and pelleted particles were subjected to SDS-PAGE analysis using AIDS patient sera (AIDS Research and Reference Regent Program, NIAID, NIH).” left out, “MAGI cells were washed after viral adsorption (HIV-1RF) with PBS and were fed fresh media containing CAP-1 at various concentrations. 72 hours post-infection, the culture supernatants were harvested and pre-cleared. Virus particles present on the supernatants were collected by microcentrifugation and particle-associated RT activity and infectivity were subsequently measured.” left out

For data set [3], the system named is HIV-1. In words: Virus production: particle-associated RT activity and CA (p24) levels in U1 supernatants. The data set is classed as cell-based. To be noted: U1 cells. As for the experimental part:
as §1, with “Cell lysates and pelleted particles were subjected to SDS-PAGE analysis using AIDS patient sera (AIDS Research and Reference Regent Program, NIAID, NIH).” left out, “MAGI cells were washed after viral adsorption (HIV-1RF) with PBS and were fed fresh media containing CAP-1 at various concentrations. 72 hours post-infection, the culture supernatants were harvested and pre-cleared. Virus particles present on the supernatants were collected by microcentrifugation and particle-associated RT activity and infectivity were subsequently measured.” left out

The subject of the next data set is Gag polyprotein. In words: p24 (CA) Western blot of Gag and its cleavage products, U1 cells. The data set is classed as cell-based, HIV-1. As for the experimental part:
as §1, with “72 hours post-infection, the culture supernatants were harvested and pre-cleared.” left out
(§2) To determine if CAP-1 affects viral gene expression and particle production, reverse transcriptase (RT) activity and CA (p24) levels were measured for the supernatants after pelleting and removal of the cells. […] Quantitation of gp120 was also obtained for the supernatant using antibodies against gp120.
(In general: In western blotting, separated proteins are transferred to a membrane and probed.)

A further data set addresses protease (Human immunodeficiency virus type 1 group M subtype B, UniProt P04585). In words: In vitro protease activity. In kind it is biochemical.
The test system of the next data set is gp120. The experiment in a line: Quantitation of gp120 in supernatant with antibodies against gp120. In kind it is cell-based, HIV-1. How it is done:
as §2

Another data set deals with HIV-1RF. The experiment in a line: Virus particle infectivity and RT activity from infected MAGI cell cultures. In kind it is cell-based. As for the experimental part:
as §1

Data set [4] has as its system HIV-1 capsid core assembly. In kind it is cell-based. To be noted: particles from treated U1 cells.
Experimental: Treated (CAP-1) and untreated virus-producing U1 cells were pelleted, washed in phosphate-buffered saline (PBS) and resuspended in at least ten cell pellet volumes of fixative (100 mM sodium cacodylate, pH 7.2, 2.5% glutaraldehyde, 1.6% paraformaldehyde, 0.5% picric acid). Cells were fixed for 24-48 hours, after which fixative was removed and cells were washed twice in PBS and pelleted in eppendorf centrifuge tubes. Washed cell pellets were post-fixed one hour in 1% osmium tetroxide plus 0.8% potassium ferricyanide in 100 mM sodium cacodylate, pH 7.2. After thorough rinsing in water, cells were pre-stained in 4% uranyl acetate one hour, thoroughly rinsed, dehydrated, infiltrated overnight in 1:1 acetone:Epon 812, infiltrated one hour with 100% Epon 812 resin, and embedded in the resin. After polymerization, 60-80 nm thin sections were cut on a Reichert untramicrotome, stained 5 minutes in lead citrate, rinsed, post-stained 30 minutes in uranyl acetate, rinsed and dried. EM was performed at 60 kV on a Philips CM120/Biotwin equipped with a 1024×1024 Gatan multiscan CCD, and images were collected at original magnifications of 25,880×-36,960×, corresponding t resolutions of 8.9 and 6.5 Å/pixel, respectively. For each sample, 4 separate EM grids were viewed, and at least 47 were collected, corresponding to a minimum total area of 35 micron^2.
A further data set deals with Gag (Human immunodeficiency virus type 1 group M subtype B, UniProt P12493). The experiment in a line: Mass action calculation of CAP-1 bound to CA/Gag in immature virions. More on the design: species or system HIV-1. As for the experimental part:
This is likely due to the high local concentration of Gag molecules in assembled virions (14 mM), which favors binding by ligands with even modest affinities, e.g., N-(3-chloro-4-methylphenyl)-N′-[2-thioethyl-2′-[5-(dimethylaminomethyl)]-2-methylfuryl]urea (CAP-1). Thus conservatively assuming that cytosolic drug concentrations in the budding virus and cells are equal (100 μM), the percentage of viral CAP-1 molecules bound to CA can be estimated by standard mass action calculations which affords a value for the concentration of bound CAP-1 ([CA:CAP-1]) of 94 μM.

Another data set concerns the target HIV-1 CA (Human immunodeficiency virus type 1 group M subtype B, UniProt P12493). Particulars: for initial assembly rate: 350 nm, 21° C., no compound 204±36.
The mark [5] stands for this setting: as a function of increasing CAP-1.

Take `Cc1ccc(NC(=O)NCCSCc2ccc(CN(C)C)o2)cc1Cl` [CAP-1, N-(3-chloro-4-methylphenyl)-N′-[2-thioethyl-2′-[5-(dimethylaminomethyl)]-2-methylfuryl]urea]: in data set [1], the “binding to the capsid NTD, from chemical shift changes (in words)” value is “bind to the apical site of the protein”. Besides, the “cell viability (in words)” value in the data set on U1 cells (100 μM, U1 cells, 72 hours) was “fully viable”. Moreover, the “tolerability in cell cultures (in words)” value in the data set with U1 cells (cell cultures) is on record as “particularly well-tolerated”. In addition, the “toxicity (in words)” value in the data set with U1 cells (72 hours) is on record as “non-toxic”. The “effect on supernatant infectivity (in words)” value in the data set on HIV-1 [2] is “dose dependent reductions”. Moreover, in the data set on HIV-1 [2] (100 μM, 72 hours), the “reduction of infectivity relative to untreated samples” value is “ca. 95%”. Also, in the data set on HIV-1 [3], the “CA (p24) levels of supernatants (in words)” value is “unaffected” and the “RT activities of supernatants (in words)” value is “unaffected”. For the same compound, in the data set with Gag polyprotein (setting [5]), the “intracellular levels of Gag (p55) (in words)” value is “reduction”; the “levels of Gag cleavage products p24 and p41 (in words)” value was “remained relatively unaffected”. In the data set on Gag polyprotein (p24 Western, treated vs untreated), the “proteolytic processing of Gag (in words)” value is “does not significantly affect”. Besides, the “in vitro protease activity (in words)” value at protease is recorded as “did not affect”. Also, the “gp120 in supernatant, treated vs untreated (in words)” value with gp120 is listed as “No differences”. Besides, the “infectious units, of the untreated levels” value with HIV-1RF (100 μM, MAGI cells, 72 hours post-infection) was “less than 2%”. Also, in the data set with HIV-1RF (MAGI cells), the “viral RT activity (in words)” value is “No reductions”. Besides, the “virus production after pre-incubation of MAGI cells or virus particles (in words)” value with HIV-1RF (pre-incubation with CAP-1) was “unaffected”. Further, the “particles with a cone-shaped core (in words)” value in [4] was “none”. Further, the “particles containing a dense, centrally located core” value in data set [4] (untreated 70%) stood at 35%. Besides, the “CAP-1 molecules in immature virions bound to Gag” value on Gag (100 μM dose) was 94%. Also, the “concentration of bound CAP-1 ([CA:CAP-1])” value at Gag (100 μM drug, 14 mM Gag in assembled virions) was 94 µM. For the same compound, the “effect on the rate of assembly (in words)” value on HIV-1 CA is “diminished in a dose-dependent manner”. Moreover, at HIV-1 CA (compound:CA ratio 1:1), the initial assembly rate is 93±3 mOD/min. Moreover, at HIV-1 CA (compound:CA ratio 2:1), the initial assembly rate was found to be 67±16 mOD/min.
By Kd is commonly meant the free concentration of one partner at which half of the binding sites on the other are occupied at equilibrium, for simple one-to-one binding. On to `CC(=O)Nc1ccc(NC(=O)Nc2ccc(C)c([N+](=O)[O-])c2)cc1` [CAP-2, N-(4-N-acetamidophenyl)-N′-(3-nitro-4-methylphenyl) urea], for which the “binding to the capsid NTD, from chemical shift changes (in words)” value in data set [1] is given as “bind to the apical site of the protein”. Moreover, in data set [1] (NMR titration, 1:1 binding isotherms), binding was characterised by a dissociation constant (Kd) of 52 ± 27 µM. The “toxicity (in words)” value in the data set on U1 cells (72 hours) is listed as “too cytotoxic”. For the same compound, the “effect on the rate of assembly (in words)” value on HIV-1 CA is recorded as “diminished in a dose-dependent manner”. Besides, the initial assembly rate on HIV-1 CA (compound:CA ratio 0.5:1) was determined as 81±2 mOD/min; on HIV-1 CA (compound:CA ratio 1:1), 39±11 mOD/min.
Consider `Cc1ccc(NC(=O)NC(C)C)cc1[N+](=O)[O-]` [CAP-3, N-(2-propyl)-N′-(3-nitro-4-methylphenyl) urea], for which the “binding to the capsid NTD, from chemical shift changes (in words)” value in [1] is on record as “very weak binding”.
On the same count and under the same terms, in the case of `Cc1ccc(NC(=O)Nc2ccc(C#N)cc2)cc1Cl` [CAP-4, N-(3-chloro-4-methylphenyl)-N′-(4-cyanophenyl) urea] it was “very weak binding”.
Same read-out and setting: in the case of `Cc1ccc(NC(=O)Nc2ccc(C(Cl)(Cl)Cl)cc2)cc1Cl` [CAP-5, N-(3-chloro-4-methylphenyl)-N′-[4-(1,1,1-trichloromethyl)phenyl] urea] it was “capsid binding”; in that of `O=C(Nc1cccc(C(F)(F)F)c1)Nc1ccc(F)c([N+](=O)[O-])c1` [CAP-6, N-(3-nitro-4-fluorophenyl)-N′-[3-(1,1,1-trifluoromethyl)phenyl] urea], “capsid binding”; in that of “N-[(3-chloro-4-methyl phenyl)-N′,N′-propyl] urea [CAP-7]”, “capsid binding”.
